The text below walks through data of article PMC10709440, “High-throughput ligand profile characterization in novel cell lines expressing seven heterologous insect olfactory receptors for the detection of volatile plant biomarkers” (Scientific Reports, 2023).

Molecules are shown by their SMILES. Read-outs that look alike come from different tables or passages of the source.

The target in one assay is T1, Drosophila OR13a (Drosophila melanogaster, UniProt Q9VXL0).
T1 construct: expressed in transfected cells
T1 sequence (Q9VXL0 1-418): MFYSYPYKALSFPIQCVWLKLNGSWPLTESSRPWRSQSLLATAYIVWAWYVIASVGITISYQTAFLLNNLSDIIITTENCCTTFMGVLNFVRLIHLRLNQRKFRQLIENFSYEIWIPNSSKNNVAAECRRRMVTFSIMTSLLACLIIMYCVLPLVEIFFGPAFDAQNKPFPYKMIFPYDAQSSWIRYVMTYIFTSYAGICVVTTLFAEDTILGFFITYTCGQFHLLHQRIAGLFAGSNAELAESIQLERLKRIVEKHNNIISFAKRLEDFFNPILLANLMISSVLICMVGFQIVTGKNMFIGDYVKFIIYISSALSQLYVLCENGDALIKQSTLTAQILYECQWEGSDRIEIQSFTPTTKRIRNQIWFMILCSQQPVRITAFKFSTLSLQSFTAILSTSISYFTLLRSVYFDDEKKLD
T1 sequence (Q9VNB5 1-486 partner): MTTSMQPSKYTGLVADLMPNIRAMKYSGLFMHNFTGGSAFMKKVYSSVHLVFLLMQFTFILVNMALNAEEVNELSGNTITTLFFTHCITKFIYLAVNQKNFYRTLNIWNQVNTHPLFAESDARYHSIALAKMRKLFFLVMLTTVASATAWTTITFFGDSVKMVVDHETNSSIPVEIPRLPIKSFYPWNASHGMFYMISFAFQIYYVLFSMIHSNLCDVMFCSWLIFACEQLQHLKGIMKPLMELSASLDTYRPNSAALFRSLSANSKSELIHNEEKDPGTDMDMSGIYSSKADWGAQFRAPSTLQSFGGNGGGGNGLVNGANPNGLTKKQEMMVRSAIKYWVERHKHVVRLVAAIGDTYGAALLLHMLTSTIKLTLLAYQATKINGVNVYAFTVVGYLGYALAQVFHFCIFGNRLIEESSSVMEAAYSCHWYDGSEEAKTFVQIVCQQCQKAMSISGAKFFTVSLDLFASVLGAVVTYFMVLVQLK
The experiment in a line: Calcium ion fluorescence (GCaMP6) assay, OR13a stable HEK293 cell line. The format is cell-based. In outline:
(§1)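 Responses are VUAA1-normalized ΔF: each VOC-evoked calcium signal, (FMAX−F0)/F0 over 30 s after injection, divided by the same line's mean 50 µM VUAA1 response. Cells were doxycycline-induced HEK293 with GCaMP6 and the cognate Drosophila OR, in HEPES buffer pH 7.3; ligands tested 0.01–100 μM.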

The target of the next assay is T2, Drosophila OR49b (Drosophila melanogaster, UniProt Q9V6H2).
T2 construct: expressed in transfected cells
T2 sequence (Q9V6H2 1-375): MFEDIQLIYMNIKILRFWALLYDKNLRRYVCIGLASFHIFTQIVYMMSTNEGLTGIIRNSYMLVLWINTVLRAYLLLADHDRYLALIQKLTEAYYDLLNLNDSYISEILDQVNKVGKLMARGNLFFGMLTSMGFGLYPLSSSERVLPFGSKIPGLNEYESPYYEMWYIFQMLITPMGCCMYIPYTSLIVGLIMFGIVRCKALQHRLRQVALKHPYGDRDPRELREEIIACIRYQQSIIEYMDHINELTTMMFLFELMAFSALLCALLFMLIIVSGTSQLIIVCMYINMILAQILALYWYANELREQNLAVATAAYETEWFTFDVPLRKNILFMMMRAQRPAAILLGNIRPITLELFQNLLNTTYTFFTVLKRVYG
T2 sequence (Q9VNB5 1-486 partner): T1 sequence (Q9VNB5 1-486 partner)
The experiment in a line: cell-based. To be noted: for Average response: mean of biological replicates. The gist of the method: as §1

The mark [1] stands for this setting: OR49b cell line, odorant cc. 1 µM.
[2] abbreviates: OR49b cell line, odorant cc. 10 µM.
Setting [3] is: OR49b cell line, odorant cc. 100 µM.
[4] abbreviates: HEK293, read-out: OR13a Average response (VUAA1-normalized), 1 μM VOC, 50 μM VUAA1 = 1, responses not exceeding 0.05 considered 0.
Where [5] appears, read: HEK293, read-out: OR13a Average response (VUAA1-normalized), 10 μM VOC, 50 μM VUAA1 = 1, responses not exceeding 0.05 considered 0.
Setting [6] is: HEK293, read-out: OR13a Average response (VUAA1-normalized), 100 μM VOC, 50 μM VUAA1 = 1, responses not exceeding 0.05 considered 0.
[7] abbreviates: ligand concentration 1 (unit not given), threshold 0.05, below shown as 0.
Setting [8] is: ligand concentration 10 (unit not given), threshold 0.05, below shown as 0.
The mark [9] stands for this setting: ligand concentration 100 (unit not given), threshold 0.05, below shown as 0.
[10] abbreviates: HEK293, read-out: OR49b Average response (VUAA1-normalized).
The mark [11] stands for this setting: HEK293, read-out: OR49b response (VUAA1-normalized response).

With `CC1=CCC[C@@]2(C)[C@@H]3CC[C@]12CC3(C)C` [(−)-α-neoclovene], the “OR13a Average response (VUAA1-normalized)” value on Drosophila OR13a (1 μM VOC, 50 μM VUAA1 = 1, responses not exceeding 0.05 considered 0) is 0.0436; at Drosophila OR13a (10 μM VOC, 50 μM VUAA1 = 1, responses not exceeding 0.05 considered 0), 0.00; at Drosophila OR13a (100 μM VOC, 50 μM VUAA1 = 1, responses not exceeding 0.05 considered 0), 0.00. The “OR13a response (VUAA1-normalized response)” value on Drosophila OR13a (VOC concentration 1 μM), at Drosophila OR13a (VOC concentration 10 μM) and at Drosophila OR13a (VOC concentration 100 μM) was 0.00 throughout. Moreover, the “DF norm AVERAGE OR13a” value came to 0 on Drosophila OR13a (concentration 1, normalized fluorescence change, values below 0.05 threshold given as 0); 0 on Drosophila OR13a (concentration 10, normalized fluorescence change, values below 0.05 threshold given as 0); 0 at Drosophila OR13a (concentration 100, normalized fluorescence change, values below 0.05 threshold given as 0). For the same compound, the “DF norm AVERAGE OR49b” value at Drosophila OR49b was found to be 0. In addition, the Average response at Drosophila OR49b (setting [1]), on Drosophila OR49b (setting [2]) and on Drosophila OR49b (setting [3]) was 0.00 each time. In addition, the “OR49b response (VUAA1-normalized response)” value at Drosophila OR49b (VOC concentration 1 μM), on Drosophila OR49b (VOC concentration 10 μM) and at Drosophila OR49b (VOC concentration 100 μM) was 0.00 throughout.

Consider `CCCCOC(C)=O` [butyl acetate], for which the activation at 1 µM at Drosophila OR13a (setting [4]) came to 0%; at Drosophila OR13a (HEK293, read-out: OR13a response (VUAA1-normalized response), VOC concentration 1 μM), 0%; at Drosophila OR49b (setting [10]), 0%; at Drosophila OR49b (setting [11]) it was 0%. In addition, the activation at 10 µM on Drosophila OR13a (setting [5]) amounted to 0%; on Drosophila OR13a (HEK293, read-out: OR13a response (VUAA1-normalized response), VOC concentration 10 μM) it was 0%; on Drosophila OR49b (setting [10]), 0%; at Drosophila OR49b (setting [11]) it was 0%. The activation at 100 µM came to 1.56% on Drosophila OR13a (setting [6]); 0% at Drosophila OR13a (HEK293, read-out: OR13a response (VUAA1-normalized response), VOC concentration 100 μM); 20% at Drosophila OR49b (setting [11]). The “DF norm AVERAGE OR13a” value on Drosophila OR13a (setting [7]), on Drosophila OR13a (setting [8]) and at Drosophila OR13a (setting [9]) was 0 in each case.

`CCCCCOC(C)=O` [pentyl acetate]: the activation at 1 µM at Drosophila OR13a (setting [4]) was 4%. In addition, the activation at 10 µM on Drosophila OR13a (setting [5]) turned out to be 0.671%. Also, on Drosophila OR13a (setting [6]), the activation at 100 µM came to 4.32%. On Drosophila OR13a (OR13a cell line, VOC concentration 1 μM), the “OR13a response (VUAA1-normalized) at 1 μM” value amounted to 0.00. Besides, the “OR13a response (VUAA1-normalized) at 10 μM” value at Drosophila OR13a (OR13a cell line, VOC concentration 10 μM) is on record as 0.00. The “OR13a response (VUAA1-normalized) at 100 μM” value at Drosophila OR13a (OR13a cell line, VOC concentration 100 μM) was determined as 0.00. The “DF norm AVERAGE OR13a” value at Drosophila OR13a (setting [7]), at Drosophila OR13a (setting [8]) and on Drosophila OR13a (setting [9]) was 0 in each case. Besides, on Drosophila OR49b (OR49b cell line, VOC concentration 1 μM), the “OR49b response (VUAA1-normalized) at 1 μM” value amounted to 0.08. The “OR49b response (VUAA1-normalized) at 10 μM” value on Drosophila OR49b (OR49b cell line, VOC concentration 10 μM) stood at 0.00. For the same compound, the “OR49b response (VUAA1-normalized) at 100 μM” value at Drosophila OR49b (OR49b cell line, VOC concentration 100 μM) was found to be 0.06. In addition, the Average response on Drosophila OR49b (setting [1]) came out at 0.08; at Drosophila OR49b (setting [2]), 0.0108; at Drosophila OR49b (setting [3]) it was 0.06. Moreover, the “DF norm AVERAGE OR49b” value stood at 0.07954 on Drosophila OR49b (setting [7]), 0 at Drosophila OR49b (setting [8]) and 0.06097 on Drosophila OR49b (setting [9]).
